In article PMC9963398, “Discovery of New Quinolone-Based Diarylamides as Potent B-RAF^V600E/C-RAF Kinase Inhibitors Endowed with Promising In Vitro Anticancer Activity” (International Journal of Molecular Sciences, 2023):

Columns and labels:
C-RAF = C-RAF (Homo sapiens, UniProt P04049); test: HotSpot kinase assay (RBC), C-RAF; details: for IC50: IC50 C-RAF
Text: Reaction Biology Corporation (RBC) Kinase HotSpotSM service was utilized for cell-free biochemical kinase evaluation of the target compounds according to the reported assay protocol [46].

MDA-MB-231/ATCC = test: cells; details: Homo sapiens
Method: (§1) The anticancer screening of target compounds over a full panel of 60 human cancer cell lines was carried out using Sulforhodamine B (SRB) assay at the National Cancer Institute (NCI), Bethesda, Maryland, USA, employing the standard protocol.

PC-3 = test: cells; details: Homo sapiens
Method: as §1

MDA-MB-468 = test: cells; details: Homo sapiens
Method: as §1

A549/ATCC = test: NCI-60 five-dose SRB assay; assay type: cell-based; details: Homo sapiens, NSCL cancer, five-dose test
Method in brief: (§2)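 The National Cancer Institute ran the sulforhodamine B assay on its complete panel of sixty human cancer cell lines, following its standard protocol.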

RXF 393 = test: NCI-60 five-dose SRB assay; assay type: cell-based; details: Homo sapiens; RXF 393, Renal cancer, five-dose test
Method in brief: as §2

RPMI-8226 = test: NCI-60 five-dose SRB assay; assay type: cell-based; details: Homo sapiens; RPMI-8226, Leukemia, five-dose test
Method in brief: as §2

HT29 = test: NCI-60 five-dose SRB assay; assay type: cell-based; details: Homo sapiens, HT-29; HT29, Colon cancer, five-dose test
Method in brief: as §2

SK-MEL-2 = test: NCI-60 five-dose SRB assay; assay type: cell-based; details: Homo sapiens; SK-MEL-2, Melanoma, five-dose test
Method in brief: as §2

A498 = test: NCI-60 five-dose SRB assay; assay type: cell-based; details: Homo sapiens; A498, Renal cancer, five-dose test
Method in brief: as §2

UACC-62 = test: NCI-60 five-dose SRB assay; assay type: cell-based; details: Homo sapiens; UACC-62, Melanoma, five-dose test
Method in brief: as §2

HOP-62 = test: NCI-60 five-dose SRB assay; assay type: cell-based; details: Homo sapiens; HOP-62, NSCL cancer, five-dose test
Method in brief: as §2

K-562 = test: NCI-60 five-dose SRB assay; assay type: cell-based; details: Homo sapiens, K562; K-562, Leukemia, five-dose test
Method in brief: as §2

MOLT-4 = test: NCI-60 five-dose SRB assay; assay type: cell-based; details: Homo sapiens; MOLT-4, Leukemia, five-dose test
Method in brief: as §2

SNB-19 = test: NCI-60 five-dose SRB assay; assay type: cell-based; details: Homo sapiens; SNB-19, CNS cancer, five-dose test
Method in brief: as §2

NCI-H23 = test: NCI-60 five-dose SRB assay; assay type: cell-based; details: Homo sapiens; NCI-H23, NSCL cancer, five-dose test
Method in brief: as §2

NCI-H226 = test: NCI-60 five-dose SRB assay; assay type: cell-based; details: Homo sapiens; NCI-H226, NSCL cancer, five-dose test
Method in brief: as §2

B-RAF^V600E = target: T1, B-RAF^V600E (Homo sapiens, UniProt P15056, V600E); test: HotSpot kinase assay (RBC), B-RAF^V600E; assay type: biochemical
T1 construct: purchased Reaction Biology Corporation (RBC), Kinase HotSpot service

NCI/ADR-RES = test: NCI-60 five-dose SRB assay; assay type: cell-based; details: Homo sapiens, Ovarian cancer, five-dose test
Method in brief: as §2

[1] = tested on: NCI-60 human cancer cell lines; test: NCI-60 single dose (10 µM) testing; assay type: cell-based; details: single dose 10 µM
Method: Encouraged by the promising results in the cell-free assay, the antiproliferative activity of all final compounds was evaluated by the National Cancer Institute (NCI) in a single dose of 10 µM over a library of 60 human cancer cell lines representing nine cancer types; leukemia, non-small cell lung (NSCL), colon, central nervous system (CNS), melanoma, ovarian, renal, prostate, and breast cancer.

B-RAF^V600K = target: T2, B-RAF^V600K (Homo sapiens, UniProt P15056, V600K); test: HotSpot kinase assay (RBC), B-RAF^V600K; assay type: biochemical; details: 10 µM ATP
T2 construct: purchased Reaction Biology Corporation (RBC), Kinase HotSpot service
Method: To gain insight into the inhibitory mode of this new array of quinolines, 18a was tested at 1 µM concentration of ATP to compare it with its IC50 at 10 µM (Table 2).

[2] = tested on: NCI-60 human tumor cell lines; test: NCI-60 five-dose testing, ranges over panel or subpanel; assay type: cell-based; details: for GI50: Homo sapiens
Method: as §1

[3] = 10 µM ATP, 10-dose singlicate IC50 mode
[4] = MALME-3M, MDA-MB-435, SK-MEL-2, and UACC-62
[5] = melanoma LOX IMVI, SK-MEL-28, and SK-MEL-5
[6] = NSCL cell lines, range over lines
[7] = colon cancer cell lines, range over lines
[8] = melanoma cell lines, range over lines

T1 sequence (P15056 whole entry V600E): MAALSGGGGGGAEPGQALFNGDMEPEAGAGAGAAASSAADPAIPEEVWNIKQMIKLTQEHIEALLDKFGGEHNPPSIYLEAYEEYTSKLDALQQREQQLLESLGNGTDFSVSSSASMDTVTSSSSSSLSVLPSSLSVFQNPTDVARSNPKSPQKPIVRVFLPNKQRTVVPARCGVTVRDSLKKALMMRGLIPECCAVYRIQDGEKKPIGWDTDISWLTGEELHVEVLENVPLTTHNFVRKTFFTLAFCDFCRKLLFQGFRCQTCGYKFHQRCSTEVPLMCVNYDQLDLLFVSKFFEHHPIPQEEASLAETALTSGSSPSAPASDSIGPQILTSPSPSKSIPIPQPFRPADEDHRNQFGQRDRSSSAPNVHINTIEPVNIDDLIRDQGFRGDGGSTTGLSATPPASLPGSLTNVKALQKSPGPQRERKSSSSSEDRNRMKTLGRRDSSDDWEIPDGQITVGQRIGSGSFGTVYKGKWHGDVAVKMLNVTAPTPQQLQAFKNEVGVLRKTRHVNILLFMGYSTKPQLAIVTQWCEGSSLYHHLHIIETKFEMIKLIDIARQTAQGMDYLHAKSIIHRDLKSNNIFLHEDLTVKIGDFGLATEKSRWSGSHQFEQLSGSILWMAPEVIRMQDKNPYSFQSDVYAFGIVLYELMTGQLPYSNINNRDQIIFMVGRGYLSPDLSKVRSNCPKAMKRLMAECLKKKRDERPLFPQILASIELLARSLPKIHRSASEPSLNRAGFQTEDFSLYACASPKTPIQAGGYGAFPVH
C-RAF, sequence (P04049 whole entry): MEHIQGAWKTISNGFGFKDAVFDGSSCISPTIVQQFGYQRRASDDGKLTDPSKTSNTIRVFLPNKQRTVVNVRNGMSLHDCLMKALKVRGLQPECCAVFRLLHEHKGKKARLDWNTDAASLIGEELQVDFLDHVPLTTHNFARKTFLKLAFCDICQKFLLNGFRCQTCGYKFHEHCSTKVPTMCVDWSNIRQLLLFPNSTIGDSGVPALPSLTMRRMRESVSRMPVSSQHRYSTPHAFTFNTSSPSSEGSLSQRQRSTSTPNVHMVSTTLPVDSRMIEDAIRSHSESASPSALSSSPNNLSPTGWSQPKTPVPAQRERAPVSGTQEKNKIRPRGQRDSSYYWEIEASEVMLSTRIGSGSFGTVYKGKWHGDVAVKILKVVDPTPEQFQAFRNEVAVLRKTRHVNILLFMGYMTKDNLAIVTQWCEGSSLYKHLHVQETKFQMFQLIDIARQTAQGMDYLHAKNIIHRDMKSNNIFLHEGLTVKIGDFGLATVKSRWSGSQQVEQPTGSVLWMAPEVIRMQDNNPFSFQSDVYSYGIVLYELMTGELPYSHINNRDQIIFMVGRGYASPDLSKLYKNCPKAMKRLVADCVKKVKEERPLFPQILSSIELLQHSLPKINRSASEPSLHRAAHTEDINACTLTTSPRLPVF
T2 sequence (P15056 whole entry V600K): as the sequence (P15056 whole entry V600E) above, with E600K counted along it

| SMILES | IC50 (C-RAF; [3]) | GI50 (MDA-MB-231/ATCC) | GI50 (PC-3) | GI50 (MDA-MB-468) | GI50 (A549/ATCC) | GI50 (RXF 393) | GI50 (RPMI-8226) | GI50 (HT29) | GI50 (SK-MEL-2) | GI50 (A498) | GI50 (UACC-62) | GI50 (HOP-62) | GI50 (K-562) | GI50 (MOLT-4) | GI50 (SNB-19) | GI50 (NCI-H23) | GI50 (NCI-H226) | IC50 (B-RAF^V600E; [3]) | GI50 (NCI/ADR-RES) | further results |
| --- | --- | --- | --- | --- | --- | --- | --- | --- | --- | --- | --- | --- | --- | --- | --- | --- | --- | --- | --- | --- |
| COc1ccc2nc(Nc3cccc(NC(=O)c4ccc(CN5CCN(C)CC5)c(C(F)(F)F)c4)c3)ccc2c1 [Compound 16a, N-(3-((6-methoxyquinolin-2-yl)amino)phenyl)-4-((4-methylpiperazin-1-yl)methyl)-3-(trifluoromethyl)benzamide] | 103 ± 2.65 nM | 1840 nM | 2900 nM | 1560 nM | 4360 nM | 1750 nM | 3140 nM | 1320 nM | 5980 nM | 7350 nM | 6450 nM | 6360 nM | 882 nM | 1630 nM | 6140 nM | 5060 nM | 4600 nM | 193 ± 7.6 nM |  | better kinase inhibition activity compared to 14a, C-RAF (C-RAF; ratio of IC50 versus 14a): 1.5 fold; better kinase inhibition activity compared to 14a, B-RAF^V600E (B-RAF^V600E; ratio of IC50 versus 14a): 2.6 fold |
| COc1cccc2nc(Nc3cccc(NC(=O)c4ccc(CN5CCCN(C)CC5)c(C(F)(F)F)c4)c3)ccc12 [Compound 14b, N-(3-((5-methoxyquinolin-2-yl)amino)phenyl)-4-((4-methyl-1,4-diazepan-1-yl)methyl)-3-(trifluoromethyl)benzamide] | 192 ± 0.6 nM | 1830 nM | 1540 nM | 1560 nM | 1900 nM | 1660 nM | 1930 nM | 1660 nM | 2150 nM | 13500 nM | 1810 nM | 1760 nM | 1230 nM | 1240 nM | 1720 nM | 1680 nM | 1940 nM | 355 ± 10.8 nM | 1720 nM |  |
| CN1CCN(Cc2ccc(C(=O)Nc3cccc(Nc4ccc5cc(O)ccc5n4)c3)cc2C(F)(F)F)CC1 [Compound 18a, N-(3-((6-hydroxyquinolin-2-yl)amino)phenyl)-4-((4-methylpiperazin-1-yl)methyl)-3-(trifluoromethyl)benzamide] | 67.6 ± 5.1 nM | 2540 nM | 4680 nM | 2230 nM | 8700 nM | 3550 nM | 2650 nM | 3370 nM | 13500 nM | 22500 nM | 15400 nM | 12100 nM | 1880 nM | 3520 nM | 13800 nM | 13900 nM | 16000 nM | 114 ± 4.95 nM |  | IC50 (C-RAF; 1 µM ATP): 29.3 ± 9 nM; growth percent [1, 4]: less than -90; growth percent [1, 5]: −100; IC50 (B-RAF^V600E; 1 µM ATP): 84.3 ± 9 nM; IC50 (B-RAF^V600K): < 5.08 nM; GI50 ([2]; LOX IMVI, MALME-3M, and SK-MEL-28): 1590 to 1790 nM; GI50 [2, 6]: 3390 to 17800 nM; GI50 [2, 7]: 2090 to 18500 nM; GI50 increase relative to 17a ([2]; other melanoma cell lines): 1.37–9.11 fold |
| CN1CCN(Cc2ccc(C(=O)Nc3cccc(Nc4ccc5c(O)cccc5n4)c3)cc2C(F)(F)F)CC1 [Compound 17a, N-(3-((5-hydroxyquinolin-2-yl)amino)phenyl)-4-((4-methylpiperazin-1-yl)methyl)-3-(trifluoromethyl)benzamide] | 95 ± 17.3 nM | 1620 nM | 2530 nM | 1620 nM | 4500 nM | 1660 nM | 2920 nM | 2060 nM | 1920 nM | 17500 nM | 1730 nM | 3000 nM | 2420 nM | 1860 nM | 2390 nM | 2260 nM | 19200 nM | 137 ± 13.2 nM | 3450 nM | growth percent [1, 4]: less than -90; growth percent [1, 5]: −100; GI50 ([2]; MOLT-4, all leukemia cell lines, except MOLT-4): > 2000 nM |
| CN1CCCN(Cc2ccc(C(=O)Nc3cccc(Nc4ccc5cc(O)ccc5n4)c3)cc2C(F)(F)F)CC1 [Compound 18b, N-(3-((6-hydroxyquinolin-2-yl)amino)phenyl)-4-((4-methyl-1,4-diazepan-1-yl)methyl)-3-(trifluoromethyl)benzamide] | 161 ± 30.1 nM | 13900 nM | 13100 nM | 8880 nM | 16200 nM | 12500 nM | 11400 nM | 13300 nM | 17200 nM | 17600 nM | 15900 nM | 17800 nM | 1180 nM | 2050 nM | 17000 nM | 16800 nM | 13800 nM | 227 ± 3.55 nM |  | effect on cell growth ([1]; LOX IMVI): lethal effect; growth percent ([1]; melanoma SK-MEL-29, SK-MEL-5, and UACC-62): under −90%; GI50 [2, 6]: 3390 to 17800 nM; GI50 [2, 7]: 2090 to 18500 nM; GI50 [2, 8]: 10400 to 17200 nM |
| COc1cccc2nc(Nc3cccc(NC(=O)c4ccc(CN5CCN(C)CC5)c(C(F)(F)F)c4)c3)ccc12 [Compound 14a, 4-((4-methylpiperazin-1-yl)methyl)-N-(3-((5-methoxyquinolin-2-yl)amino)phenyl)-3-(trifluoromethyl)benzamide] | 151 ± 2.35 nM | 1770 nM | 1700 nM | 1920 nM | 2440 nM | 1730 nM | 2780 nM | 1860 nM | 3520 nM | 2000 nM | 1750 nM | 1560 nM | 2700 nM | 1450 nM | 1780 nM | 1910 nM | 4630 nM | 498 ± 35.8 nM | 2280 nM |  |
| COc1cccc2nc(Nc3ccc(F)c(NC(=O)c4ccc(CN5CCN(C)CC5)c(C(F)(F)F)c4)c3)ccc12 [Compound 15a, N-(2-fluoro-5-((5-methoxyquinolin-2-yl)amino)phenyl)-4-((4-methylpiperazin-1-yl)methyl)-3-(trifluoromethyl)benzamide] | 161 ± 1.57 nM | 12100 nM | 12000 nM | 4790 nM | 12200 nM | 3710 nM | 9300 nM | 3610 nM | 16100 nM | 16900 nM | 16200 nM | 14500 nM | 3590 nM | 4100 nM | 17200 nM | 15500 nM | 11100 nM | 314 ± 22.9 nM |  | GI50 ([2]; all cancer cell lines, range over lines): 3610 to 18800 nM; GI50 [2, 8]: 11700 to 16300 nM |
| CCN1CCN(Cc2ccc(C(=O)Nc3cccc(Nc4ccc5c(OC)cccc5n4)c3)cc2C(F)(F)F)CC1 [Compound 14c, 4-((4-ethylpiperazin-1-yl)methyl)-N-(3-((5-methoxyquinolin-2-yl)amino)phenyl)-3-(trifluoromethyl)benzamide] | 182 ± 15.2 nM | 1540 nM | 2140 nM | 1600 nM | 2500 nM | 1630 nM | 2240 nM | 1760 nM | 10700 nM | 11800 nM | 1530 nM | 3670 nM | 2110 nM | 1230 nM | 1650 nM | 2370 nM | 5530 nM | 619 ± 2.7 nM | 2280 nM |  |
